The text below walks through data of patent publication US20240059671A1, “TYROSINE KINASE 2 (TYK2) DEGRADATION COMPOUNDS AND METHODS OF USE” (CULLGEN (SHANGHAI), INC., priority 2020, published 2024).

The target in this test is TYK2 (Homo sapiens, UniProt P29597). The test can be described thus: TYK2 protein degradation in MOLT-4 cells by immunoblotting. The test is classed as cell-based. Further details: endogenous in cells; host or cells: MOLT-4. The note with it: MOLT-4 cells, 24 hours. On the procedure:
MOLT-4 cells were treated with compounds at 0.5 and 5 μM concentrations for 24 hours.
MOLT-4 cells were treated with CPD-038, CPD-039, and CPD-040 at 0.04, 0.2, 1, and 5 μM concentrations for 24 hours.
MOLT-4 or NOMO-1 cells were cultured at 37° C. with 5% CO2 in RPMI 1640 Medium supplemented with 10% fetal bovine serum. Cells were authenticated using the short tandem repeat (STR) assays. Mycoplasma test results were negative.
Cultured cells were washed with cold PBS once and lysed in cold RIPA buffer supplemented with protease inhibitors and phosphatase inhibitors (Beyotime Biotechnology). The solutions were then incubated at 4° C. for 30 minutes with gentle agitation to fully lyse cells. Cell lysates were centrifuged at 13,000 rpm for 10 minutes at 4° C. and pellets were discarded. Total protein concentrations in the lysates were determined by BCA assays (Beyotime Biotechnology). Cell lysates were mixed with Laemmli loading buffer to 1× and heated at 99° C. for 5 min. Proteins were resolved on SDS-PAGE and visualized by chemiluminescence. Images were taken by a ChemiDoc MP Imaging system (Bio-Rad). Protein bands were quantitated using the accompanied software provided by Bio-Rad.
The percentage of TYK2 protein degradation of each compound at 0.5 and 5 μM determined in MOLT-4 cells as described in Methods.

Sequence of TYK2 (P29597 whole entry): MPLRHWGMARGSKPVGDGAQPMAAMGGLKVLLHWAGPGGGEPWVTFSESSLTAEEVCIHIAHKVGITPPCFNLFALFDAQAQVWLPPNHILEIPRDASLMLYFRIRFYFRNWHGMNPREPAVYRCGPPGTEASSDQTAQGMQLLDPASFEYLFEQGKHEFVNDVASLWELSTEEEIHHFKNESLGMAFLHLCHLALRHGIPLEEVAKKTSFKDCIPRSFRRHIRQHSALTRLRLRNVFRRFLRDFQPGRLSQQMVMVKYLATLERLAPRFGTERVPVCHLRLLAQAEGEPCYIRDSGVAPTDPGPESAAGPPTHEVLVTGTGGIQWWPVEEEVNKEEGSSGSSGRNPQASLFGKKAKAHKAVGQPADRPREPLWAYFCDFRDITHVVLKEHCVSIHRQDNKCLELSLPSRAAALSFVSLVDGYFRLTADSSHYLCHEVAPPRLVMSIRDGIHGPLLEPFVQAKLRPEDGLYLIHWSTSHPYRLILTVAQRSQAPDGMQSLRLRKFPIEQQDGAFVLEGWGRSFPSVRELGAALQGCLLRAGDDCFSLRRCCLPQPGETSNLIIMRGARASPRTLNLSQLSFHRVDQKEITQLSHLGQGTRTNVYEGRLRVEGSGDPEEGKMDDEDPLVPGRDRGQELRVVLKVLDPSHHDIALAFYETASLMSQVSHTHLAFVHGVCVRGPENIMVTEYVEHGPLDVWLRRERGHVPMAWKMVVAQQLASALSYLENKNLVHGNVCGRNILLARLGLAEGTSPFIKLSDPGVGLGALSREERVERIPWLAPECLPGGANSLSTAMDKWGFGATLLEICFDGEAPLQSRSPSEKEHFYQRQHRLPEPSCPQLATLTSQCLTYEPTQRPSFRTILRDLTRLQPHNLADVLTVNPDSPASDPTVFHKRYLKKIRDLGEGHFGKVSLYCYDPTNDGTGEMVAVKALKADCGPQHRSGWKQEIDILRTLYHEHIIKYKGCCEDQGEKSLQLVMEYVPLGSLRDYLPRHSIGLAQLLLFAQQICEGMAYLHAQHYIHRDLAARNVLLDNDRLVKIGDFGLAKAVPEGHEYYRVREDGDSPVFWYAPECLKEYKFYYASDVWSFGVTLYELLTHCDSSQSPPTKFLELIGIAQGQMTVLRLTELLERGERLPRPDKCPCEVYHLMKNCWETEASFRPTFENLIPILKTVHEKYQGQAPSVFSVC

For `CNC(=O)c1nnc(NC(=O)C2CC2)cc1Nc1cccc(-c2ncn(CCNC(=O)CCOCCNc3ccc4c(c3)C(=O)N(C3CCC(=O)NC3=O)C4=O)n2)c1OC` (centres unmarked) [CPD-018, 6-(Cyclopropanecarboxamido)-4-((3-(1-(2-(3-(2-((2-(2,6-dioxopiperidin-3-yl)-1,3-dioxoisoindolin-5-yl)amino)ethoxy)propanamido)ethyl)-1H-1,2,4-triazol-3-yl)-2-methoxyphenyl)amino)-N-methylpyridazine-3-carboxamide], the “TYK2 Degradation (0.5 μM)” value is given as at most 20%.
Still for that read-out and setting: for `CNC(=O)c1nnc(NC(=O)C2CC2)cc1Nc1cccc(-c2ncn(CCNC(=O)CCOCCOCCNc3ccc4c(c3)C(=O)N(C3CCC(=O)NC3=O)C4=O)n2)c1OC` (centres unmarked) [CPD-019, 6-(Cyclopropanecarboxamido)-4-((3-(1-(2-(3-(2-(2-((2-(2,6-dioxopiperidin-3-yl)-1,3-dioxoisoindolin-5-yl)amino)ethoxy)ethoxy)propanamido)ethyl)-1H-1,2,4-triazol-3-yl)-2-methoxyphenyl)amino)-N-methylpyridazine-3-carboxamide] the value was at most 20%; for `CNC(=O)c1nnc(NC(=O)C2CC2)cc1Nc1cccc(-c2ncn(CCNC(=O)CCOCCOCCOCCNc3ccc4c(c3)C(=O)N(C3CCC(=O)NC3=O)C4=O)n2)c1OC` (centres unmarked) [CPD-020, 6-(Cyclopropanecarboxamido)-4-((3-(1-(1-((2-(2,6-dioxopiperidin-3-yl)-1,3-dioxoisoindolin-5-yl)amino)-12-oxo-3,6,9-trioxa-13-azapentadecan-15-yl)-1H-1,2,4-triazol-3-yl)-2-methoxyphenyl)amino)-N-methylpyridazine-3-carboxamide], at most 20%.
As for `CNC(=O)c1nnc(NC(=O)C2CC2)cc1Nc1cccc(-c2ncn(CCNC(=O)CCOCCOCCOCCOCCNc3ccc4c(c3)C(=O)N(C3CCC(=O)NC3=O)C4=O)n2)c1OC` (centres unmarked) [CPD-021, 6-(Cyclopropanecarboxamido)-4-((3-(1-(1-((2-(2,6-dioxopiperidin-3-yl)-1,3-dioxoisoindolin-5-yl)amino)-15-oxo-3,6,9,12-tetraoxa-16-azaoctadecan-18-yl)-1H-1,2,4-triazol-3-yl)-2-methoxyphenyl)amino)-N-methylpyridazine-3-carboxamide], the “TYK2 Degradation (0.5 μM)” value was at most 20% and the “TYK2 Degradation (5 μM)” value is at most 20%.
As for `CNC(=O)c1nnc(NC(=O)C2CC2)cc1Nc1cccc(-c2ncn(CCNC(=O)CCOCCOCCOCCOCCOCCNc3ccc4c(c3)C(=O)N(C3CCC(=O)NC3=O)C4=O)n2)c1OC` (centres unmarked) [CPD-022, 6-(Cyclopropanecarboxamido)-4-((3-(1-(1-((2-(2,6-dioxopiperidin-3-yl)-1,3-dioxoisoindolin-5-yl)amino)-18-oxo-3,6,9,12,15-pentaoxa-19-azahenicosan-21-yl)-1H-1,2,4-triazol-3-yl)-2-methoxyphenyl)amino)-N-methylpyridazine-3-carboxamide], the “TYK2 Degradation (0.5 μM)” value amounted to 40% and the “TYK2 Degradation (5 μM)” value was at most 20%.
On to `CNC(=O)c1nnc(NC(=O)C2CC2)cc1Nc1cccc(-c2ncn(CCNC(=O)CCCCCNc3ccc4c(c3)C(=O)N(C3CCC(=O)NC3=O)C4=O)n2)c1OC` (centres unmarked) [CPD-023, 6-(Cyclopropanecarboxamido)-4-((3-(1-(2-(6-((2-(2,6-dioxopiperidin-3-yl)-1,3-dioxoisoindolin-5-yl)amino)hexanamido)ethyl)-1H-1,2,4-triazol-3-yl)-2-methoxyphenyl)amino)-N-methylpyridazine-3-carboxamide], for which the “TYK2 Degradation (0.5 μM)” value is reported as at most 20% and the “TYK2 Degradation (5 μM)” value was at most 20%.
`CNC(=O)c1nnc(NC(=O)C2CC2)cc1Nc1cccc(-c2ncn(CCNC(=O)CCCCCCCNc3ccc4c(c3)C(=O)N(C3CCC(=O)NC3=O)C4=O)n2)c1OC` (centres unmarked) [CPD-024, 6-(Cyclopropanecarboxamido)-4-((3-(1-(2-(8-((2-(2,6-dioxopiperidin-3-yl)-1,3-dioxoisoindolin-5-yl)amino)octanamido)ethyl)-1H-1,2,4-triazol-3-yl)-2-methoxyphenyl)amino)-N-methylpyridazine-3-carboxamide]: the “TYK2 Degradation (0.5 μM)” value was at most 20% and the “TYK2 Degradation (5 μM)” value came to 30%.
